IC50 data for 5 compounds are collected here from patent publication US5789403A, “Substituted thiazolo [3,2-a]azepine derivatives” (Eisai Co., Ltd., priority 1994, dated 1998).

For test [1], the target named is T1, NEP (neutral endpeptidase) (Rattus norvegicus, UniProt P07861).
T1 construct: membrane fraction prepared from the kidney cortex of rat; from tissue; host or cells: rat kidney cortex membrane fraction
T1 sequence (P07861 1-750): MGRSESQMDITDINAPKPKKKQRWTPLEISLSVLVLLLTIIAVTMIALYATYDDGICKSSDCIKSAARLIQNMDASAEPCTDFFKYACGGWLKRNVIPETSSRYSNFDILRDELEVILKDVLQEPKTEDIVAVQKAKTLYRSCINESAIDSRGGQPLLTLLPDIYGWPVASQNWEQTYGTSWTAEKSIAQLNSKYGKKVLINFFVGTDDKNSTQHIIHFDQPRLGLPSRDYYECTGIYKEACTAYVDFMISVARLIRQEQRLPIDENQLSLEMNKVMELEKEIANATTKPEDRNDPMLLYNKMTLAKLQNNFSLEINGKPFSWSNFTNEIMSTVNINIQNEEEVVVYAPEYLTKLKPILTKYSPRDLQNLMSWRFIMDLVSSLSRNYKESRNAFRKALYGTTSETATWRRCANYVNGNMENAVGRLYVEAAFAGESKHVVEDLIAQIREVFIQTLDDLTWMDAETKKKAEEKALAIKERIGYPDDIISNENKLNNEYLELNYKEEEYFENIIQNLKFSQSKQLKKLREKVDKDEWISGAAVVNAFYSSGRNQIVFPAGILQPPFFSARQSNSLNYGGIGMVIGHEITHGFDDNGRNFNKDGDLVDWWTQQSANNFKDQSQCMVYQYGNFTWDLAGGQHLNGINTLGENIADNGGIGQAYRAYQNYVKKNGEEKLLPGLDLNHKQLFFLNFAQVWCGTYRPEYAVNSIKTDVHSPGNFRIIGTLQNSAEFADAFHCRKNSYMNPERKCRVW
Nature of the test: NEP inhibiting activity with rat kidney cortex membrane fraction. The following applies: substrate Benzoyl-Gly-Arg-Arg-2-naphthylamide, 540 nm. The test is classed as biochemical. The method, then:
Determination of NEP inhibiting activities of medicaments with rat kidney cortex
NEP activity was determined with the membrane fraction prepared from the kidney cortex of rat according to the process of Booth and Kenny (A Rapid Method for the Purification of Microvilli from Rabbit Kidney., Andrew G. Booth and A. John Kenny, Biochem J., 1974, 142, 575-581).
The NEP activity was determined according to the process of Orlowsky and Wilk (Purification and Specificity of a Membrane-Bound Metalloendpeptidase from Bovine Pituitaries., Marian Orlowsky and Shrwin Wilk, Biochemistry, 1981, 20, 4942-4950.) by the following method.
Benzoyl-glycyl-arginyl-arginyl-2-naphthylamide (Benzoyl-Gly-Arg-Arg-2-napththylamide (Nova Biochem, Switzerland)) was used as substrate. The naphthylamine liberated in the presence of the NEP enzyme sample and excess of leucine aminopeptidase (Sigma Chemical Co., U.S.A.) was color-developed with […] (Sigma Chemical Co., U.S.A.) and the absorbance at a wavelength of 540 nm was determined.
The NEP inhibiting activity was determined by adding the test compound to the above experiment system in final concentrations of 1, 3, 10, 30, 100, 300 and 1000 nM to form an inhibition curve and determining the concentration at which 50% of the activity was inhibited as IC50. [4S-(4α,7α(R*), 12bβ]]-7-[(1-oxo-2(S)-thio-3-phenylpropyl)amino]-1,2,3,4,6,7,8,12b-octahydro-6-oxopyrido[2,1-a] [2] benzazepine-4-carboxylic acid (which is a compound disclosed in Japanese Patent Publication-A No. 4-282382) was used as the control compound.

Test [2] has as its target T2, ACE (angiotensin I converting enzyme) (Rattus norvegicus, UniProt P47820).
T2 construct: membrane fraction prepared from the lung of rat; from tissue; host or cells: rat lung membrane fraction
T2 sequence (P47820 36-1313): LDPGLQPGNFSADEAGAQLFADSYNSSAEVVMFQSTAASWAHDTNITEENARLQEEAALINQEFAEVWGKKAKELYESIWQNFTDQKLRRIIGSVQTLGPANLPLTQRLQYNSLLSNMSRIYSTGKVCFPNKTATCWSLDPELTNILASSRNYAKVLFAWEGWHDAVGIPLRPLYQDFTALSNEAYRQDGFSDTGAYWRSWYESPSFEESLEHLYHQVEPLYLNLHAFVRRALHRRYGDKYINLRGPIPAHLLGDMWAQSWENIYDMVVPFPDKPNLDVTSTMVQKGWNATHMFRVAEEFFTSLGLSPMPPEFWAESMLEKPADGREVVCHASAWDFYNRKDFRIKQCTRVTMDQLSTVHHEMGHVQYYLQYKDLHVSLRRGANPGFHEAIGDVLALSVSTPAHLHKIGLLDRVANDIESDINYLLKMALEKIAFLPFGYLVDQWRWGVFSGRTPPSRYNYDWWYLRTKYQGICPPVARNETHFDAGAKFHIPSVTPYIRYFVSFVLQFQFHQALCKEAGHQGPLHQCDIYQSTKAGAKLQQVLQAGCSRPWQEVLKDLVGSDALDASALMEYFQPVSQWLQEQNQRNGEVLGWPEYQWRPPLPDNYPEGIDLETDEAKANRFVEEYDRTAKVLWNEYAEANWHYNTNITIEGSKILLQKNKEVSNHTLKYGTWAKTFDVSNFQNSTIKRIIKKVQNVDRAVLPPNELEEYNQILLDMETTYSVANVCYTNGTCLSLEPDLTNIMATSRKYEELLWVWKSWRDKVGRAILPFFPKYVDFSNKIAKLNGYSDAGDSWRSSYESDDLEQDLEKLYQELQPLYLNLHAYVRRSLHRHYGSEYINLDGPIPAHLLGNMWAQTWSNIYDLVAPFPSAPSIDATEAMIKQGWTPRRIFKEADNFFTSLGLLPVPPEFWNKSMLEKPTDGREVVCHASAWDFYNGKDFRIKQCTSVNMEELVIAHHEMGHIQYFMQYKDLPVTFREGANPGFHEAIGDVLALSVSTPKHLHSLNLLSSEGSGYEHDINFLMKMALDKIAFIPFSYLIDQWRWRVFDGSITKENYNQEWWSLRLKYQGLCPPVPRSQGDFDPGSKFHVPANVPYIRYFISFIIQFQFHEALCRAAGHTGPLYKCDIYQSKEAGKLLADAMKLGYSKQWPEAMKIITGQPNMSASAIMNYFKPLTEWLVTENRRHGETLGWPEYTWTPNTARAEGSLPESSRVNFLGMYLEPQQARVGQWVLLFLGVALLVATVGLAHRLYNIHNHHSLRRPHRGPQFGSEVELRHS
Description: ACE inhibiting activity with rat lung membrane fraction. The test is classed as biochemical. The following applies: substrate Hippuryl-His-Leu, borate buffer pH 8.3, 228 nm. The method, then: Determination of ACE inhibiting activities of medicaments with rat lung
ACE inhibiting activity was examined with the membrane fraction prepared from the lung of rat according to the method of Wu-Wong et al. (Characterization of Endthelin Converting Enzyme in Rat Lung, Junshyum R. Wu-Wong, Gerald P. Budzik, Edward M. Devine and Terry J. Opgenorth, Biochem. Biophys. Res. Commun., 1990, 171, 1291-1296.).
The ACE activity was determined by a modification (wherein the pH of the borate buffer was changed to 8.3) of the Cushman-Cheung method (Spectrophotometric Assay and Properties of the Angiotensin-Converting Enzyme of Rabbit Lung., Cushman D. W. and Cheung H. S., 1971, 20, 1637-1648).
The hippurate liberated from Hippuryl-histidylleucine (Hippuryl-His-Leu (Peptidelnstitute lnc., Japan)) in the presence of ACE was extracted with ethyl acetate and the absorbance at a wavelength of 228 nm was determined.
The ACE inhibiting activity was determined by adding the test compound to the above experiment system in final concentrations of 1, 3, 10, 30, 100, 300 and 1000 nM to form an inhibition curve and determining the concentration at which 50% of the activity was inhibited as IC50. [4S-[4α,7α(R*),12bβ]]-7-[(1-oxo-2(S)-thio-3-phenylpropyl)amino]-1,2,3,4,6,7,8,12b-octahydro-6-oxopyrido[2,1-a] [2]benzazepine-4-carboxylic acid (which is a compound disclosed in Japanese Patent Publication-A No. 4-282382) was used as the control compound.

Each structure is given as a SMILES string.

Broadly, the IC50 is the point on the concentration scale where inhibition reaches its midpoint. For the compound `CC[C@H](C)[C@H](S)C(=O)N[C@H]1CC[C@H](C)[C@H]2SC[C@@H](C(=O)O)N2C1=O` [Example 3, [3R-(3α,6α,9β,9aβ)]-6-[[(2S,3S)-1-Oxo-2-thio-3-methylpentyl]amino]-9-methyl-5-oxo-octahydrothiazolo[3,2-a]azepine-3-carboxylic acid], the values for the IC50 in test [1] and in test [2] were 4.3 nM and 2.5 nM, respectively.

Take `CC[C@H](C)[C@H](S)C(=O)N[C@H]1C[C@@H](C)C[C@H]2SC[C@@H](C(=O)O)N2C1=O` [Example 9, [3R-(3α,6α,8α,9aβ)]-6-[[(2S,3S)-1-Oxo-2-thio-3-methylpentyl]amino]-8-methyl-octahydro-5-oxothiazolo[3,2-a]azepine-3-carboxylic acid]: the IC50 was determined as 13 nM in test [1] and 5.1 nM in test [2].

In the case of `CC[C@H](C)[C@H](S)C(=O)N[C@H]1C[C@H](C)C[C@H]2SC[C@@H](C(=O)O)N2C1=O` [Example 10, [3R-(3α,6α,8β,9aβ)]-6-[[(2S,3S)-1-Oxo-2-thio-3-methylpentyl]amino]-8-methyl-octahydro-5-oxothiazolo[3,2-a]azepine-3-carboxylic acid], the IC50 in test [1] was found to be 12 nM; in test [2], 4.3 nM.

In the case of `CC[C@H](C)[C@H](S)C(=O)N[C@H]1CC[C@@H](C)[C@H]2SC[C@@H](C(=O)O)N2C1=O` [Example 11, [3R-(3α,6α,9α,9aβ)]-6-[[(2S,3S)-1-Oxo-2-thio-3-methylpentyl]amino]-9-methyl-5-oxo-octahydrothiazolo[3,2-a]azepine-3-carboxylic acid], the IC50 in test [1] worked out at 6.7 nM; in test [2], 2.2 nM.

As for `CC[C@H]1CC[C@H](NC(=O)[C@@H](S)[C@@H](C)CC)C(=O)N2[C@@H]1SC[C@H]2C(=O)O` [Example 24, [3R-(3α,6α,9β,9aβ)]-6-[[(2S,3S)-1-Oxo-2-thio-3-methylpentyl]amino]-9-ethyl-5-oxo-octahydrothiazolo[3,2-a]azepine-3-carboxylic acid], the results for the IC50 in test [1] and in test [2] were 1.5 nM and 2.5 nM, respectively.
